# Experimental data published in patent US20070166187A1, “Stabilization of paricalcitol using chlorobutyl or chlorinated butyl stoppers” (priority 2006, published 2007).
# Assays:
# [1] = formulation study of the effect of BHT on paricalcitol stability, 35 day 80° C. degradation model; format: physicochemical; details: no BHT, ampule and vial with 4432/50/Flu/B2-40 stopper, 35 days
# Experimental: BHT is an antioxidant and is often used to protect chemicals and materials from oxidative degradation and is present in several of the stoppers. Levels of BHT were identified in the test samples during the 21 day, 80° C. storage and during a separate 25, 30, and 40° C. stability studies conducted over a 9-month interval. […] To determine, whether or not BHT would enhance the stability or cause degradation of the paricalcitol solution, a formulation study was conducted to evaluate the effect of BHT on the stability of paricalcitol in the Zemplar® formulation with the current stopper using a 35 day 80° C. degradation model. In this study, different amounts of BHT were added to the Zemplar® formulation with concentrations of 0.05, 0.1, 0.5, and 1.0 mcg/mL. The controls consisted of the Zemplar formulation without BHT contained in ampules and vials sealed with either […]-1/FT/B2-40 or the 4432/50/Flu/B2-40 stoppers. […] Therefore, causes not fully understood led to the enhanced stabilization of the paricalcitol solution contained in samples with 4432/50/Flu/B2-40 stoppers.
# [2] = accelerated stability model: paricalcitol solution in stoppered vials or ampule, inverted, 80° C., 21 days, HPLC; format: physicochemical
# Experimental: In order to effectively evaluate different container closures, an accelerated stability model was devised, wherein vials that contained a paricalcitol solution and were sealed with 27 different types of stoppers were stored inverted and protected from light at 80° C. for 21 days. The vials were different only in the composition of the stoppers which were obtained from commercially available sources. Throughout the 21 day trial, samples were removed at day 2, 7, 14 and 21, and the contents of the vial were analyzed by HPLC (High Pressure Liquid Chromatography) to determine the concentration of the test compound paricalcitol compared to a control sample of known concentration. The control sample consisted of a paricalcitol injection solution stored in a sealed glass ampule which maintained 100% potency for the entirety of the test (21 days). The relative concentration of the paricalcitol in the vials stored with test stoppers compared to the control sample was measured indicating stability of the paricalcitol over the 21 day test. In addition, the accelerated shelf-life study conditions were conducted on an identical vial wherein the headspace of the vials was blanketed with argon gas above the paricalcitol solutions prior to sealing with the appropriate stopper. The argon blanketed sample containing a lower concentration of oxygen was compared to the control sample to determine the stability of the test compound in a more inert atmosphere. The 80° C. 21 day rapid screening method of solutions of paricalcitol in the presence of different stoppers was designed to predict the stability of the test compound (i.e., paricalcitol) relative to the containers that are used in the current marketed product. The paricalcitol solution preparation: (5 mcg/mL in water-propylene glycol-ethanol/50:30:20; as defined under USP28-NF23 Page 1471 guidelines) contains not less than 90.0 percent and not more than 110.0 percent of the labeled amount of paricalcitol (C27H44O3). 1 mL of solution was added to a 5 mL or 10 mL (for 20 mm stopper) Type 1 glass vial. The vials were sealed with the various types of stoppers. In order to evaluate the effect of oxygen, a second series of identical vials was blanketed with argon prior to capping with the stoppers. All of the samples were stored inverted in a light-protected, 80° C. oven to obtain maximum contact between solution and the stopper. Ampule samples (with no headspace argon gassing) were prepared and stored along with vials under the same condition to serve as a control. At least 2 samples for each type of stopper were pulled out at 2, 7, 14, and 21 day time points and assayed using HPLC without further dilution. Paricalcitol concentration profiles from the vials containing different composition stoppers were compared to the same solution packaged in ampules. The relative concentration of remaining paricalcitol was plotted over the course of the 21 day test to determine the relative stability of paricalcitol in the presence of the test stopper. Chromatographic system used: The liquid chromatograph was equipped with a 252-nm detector and a 4.6-mm×25-cm column that contains 5-μm packing L1 with a flow rate about 2 mL per minute. […] Separately inject equal volumes (about 100 to 200 μL) of the Standard preparation and the Assay preparation into the chromatograph, record the chromatograms, and measure the responses for the major peaks. Calculate the quantity, in μg, of paricalcitol (C27H44O3) in each mL of the Injection taken by the formula: C(rU/rS), in which C is the concentration, in μg per mL, of paricalcitol in the control standard, calculated on the basis of the content of paricalcitol in the USP Paricalcitol Solution RS; and rU and rS are the paricalcitol peak responses obtained from the test samples and the control standard, respectively. Results Five stability studies were conducted to evaluate the stoppers. […]
# [3] = commercially available injection vial containing a solution of paricalcitol; cited from earlier work
compound,measurement,setting,value
C[C@H](/C=C/[C@H](C)C(C)(C)O)[C@H]1CC[C@H]2/C(=C/C=C3C[C@@H](O)C[C@H](O)C3)CCC[C@]12C [paricalcitol],paricalcitol concentration,[1],remained constant
same,stability with argon headspace gassing,"[2]; Study 1, argon headspace, chlorobutyl stoppers versus other stoppers",more stable
same,concentration of paricalcitol within the vial,"[2]; Study 1, without argon headspace, Stopper #8 (Ashland chlorobutyl, Tefzel)",comparable to the sample stored in the ampule
same,degradation over the 21 day test period,"[2]; Study 1, without argon headspace, Stopper #8 (Ashland chlorobutyl, Tefzel) and Stopper #7 (Ashland chlorobutyl, uncoated) versus stoppers #3, 10, 12, 13",least degradation
same,paricalcitol concentration,"[2]; Study 2, West chlorobutyl and Daikyo chlorinated butyl stoppers, 21 days at 80° C.",remained unchanged
same,concentration of paricalcitol at the 21 day interval,"[2]; Study 2, argon headspace, butyl, bromobutyl and POE stoppers compared to chlorobutyl and chlorinated butyl stoppers",still lowest
same,stability profile,"[2]; Study 3, without argon, Ashland 5212 chlorobutyl stoppers with Plasma and Prop coatings",constant stability profiles
same,performance relative to ampule,"[2]; Study 4, West 4432/50 stopper without any barrier coating",performed as well as the ampule sample
same,concentration of paricalcitol throughout the 21 day test,"[2]; Study 4, stoppers consisting of chlorobutyl material",consistently maintained the highest concentration
same,time point at which potency drop starts,"[2]; vial with D777-1/FT/B2-40 stopper (marketed stopper), 80° C.",7 days
same,rate of decomposition over the 21 days,"[2]; vials sealed with chlorobutyl or chlorinated butyl stoppers, 80° C.",slowest rate of decomposition
same,current shelf-life,[3],1 year
